Laboratory results reported in ChEMBL document CHEMBL1148727, “Discovery of 1,4-dihydroxy-2-naphthoate [corrected] prenyltransferase inhibitors: new drug leads for multidrug-resistant gram-positive pathogens” (2007).
Values after ≈ are worked out from the molar mass of the structure shown.

Tests used:
Type in all cases: functional
[1] = tested on: Mycobacterium tuberculosis variant bovis BCG; experiment: Antibacterial activity against Mycobacterium bovis BCG Tokyo after 18 hrs by agar plate dilution method
[2] = tested on: Mycobacterium tuberculosis; experiment: Antibacterial activity against isoniazid-resistant Mycobacterium tuberculosis H37Rv after 18 hrs by agar plate dilution method
[3] = tested on: Mycobacterium tuberculosis; experiment: Antibacterial activity against rifampicin-resistant Mycobacterium tuberculosis H37Rv after 18 hrs by agar plate dilution method

| Structure (SMILES) | MIC [1] [µg/mL] | MIC [2] [µg/mL] | MIC [3] [µg/mL] |
| --- | --- | --- | --- |
| CO[C@H]1/C=C/O[C@@]2(C)Oc3c(C)c(O)c4c(O)c(c(/C=N/N5CCN(C)CC5)c(O)c4c3C2=O)NC(=O)/C(C)=C\C=C\[C@H](C)[C@H](O)[C@@H](C)[C@@H](O)[C@@H](C)[C@H](OC(C)=O)[C@@H]1C [RIFAMPIN] | 0.1 (≈ 0.122 µM) | 0.2 (≈ 0.243 µM) | > 25 |
| C=CCN(C)CCCCCCCCOc1ccc(C(=O)c2ccc(Cl)cc2)c(O)c1 | 3.1 (≈ 7.21 µM) | 1.5 (≈ 3.49 µM) | 1.5 (≈ 3.49 µM) |
| NNC(=O)c1ccncc1 [ISONIAZID] | 0.1 (≈ 0.729 µM) | > 25 | 0.05 (≈ 0.365 µM) |
